We go through 5 compounds from patent US9796671B2, “Aurora kinase inhibitors” (REGENTS OF THE UNIVERSITY OF MINNESOTA, priority 2012, dated 2017).

Molecules are shown by their SMILES.

This experiment relates to HCT116 cells. The experiment can be described thus: Anchorage-independent growth (soft agar colony formation). Type of experiment: cell-based. The note with it: 0.5 μM. As to the method: FIGS. 3A and 3B. Compounds 1-8 suppress the anchorage-independent growth of HCT116 cells. The asterisk indicates a significant (* p<0.05, ** p<0.01) decrease in colony formation in cells treated with each compound compared with the DMSO treated control group. Two concentrations of each compound, 0.5 μM and 5 μM were tested. […] Compounds 2 and 4 had no effect.
Tumor cells are suspended in basal medium Eagle (BME) medium and added to 0.6% agar, with different concentrations of Compound 1 in a base layer and a top layer of 0.3% agar. The cultures are maintained at 37° C. in a 5% CO2 incubator for 1 to 2 weeks and then colonies are counted under a microscope using the Image-Pro Plus software (v.4) program (Media Cybernetics, Silver Spring, Md.).
As to `O=C(/C=C/c1ccc2c(c1)OCO2)/C=C1/C(=O)Nc2cccc(Cl)c21` [Compound 4], the “anchorage-independent growth of HCT116 cells (colony formation)” value is “no effect”.
The result for `COc1cc(/C=C/C(=O)/C=C2/C(=O)Nc3ccccc32)ccc1O` [Compound 8] reads “best efficiency”.
As for `COc1cc(/C=C/C(=O)/C=C2/C(=O)Nc3ccccc32)cc(OC)c1OC` [Compound 5], the “anchorage-independent growth of HCT116 cells (colony formation)” value is “best efficiency”.
The same measure for `O=C(/C=C/c1ccc2c(c1)OCO2)/C=C1/C(=O)Nc2ccc(F)cc21` [Compound 6]: “best efficiency”; for `O=C(/C=C/c1ccc2c(c1)OCO2)/C=C1/C(=O)Nc2ccc(Cl)cc21` [Compound 2]: “no effect”.
